# Values quoted from earlier work, collected in PubChem BioAssay AID1259409 (Chemical Carcinogenesis Research Information System (CCRIS), 2018).
# Where “and” joins values, the source holds several entries; their conditions need not be identical. Identical values can stand only once.
# Tested on: rodent chemically induced tumor inhibition, incidence and multiplicity
# Test: CCRIS tumor inhibitor studies
# Conditions: Dose [Inhibitor]: 0
smiles,measurement,setting,value
N#C[Se]Cc1ccc(C[Se]C#N)cc1,"tumour outcome (control, treated, inhibition, significance)","Carcinogen: 4(Methylnitrosamino)-1-(3-pyridyl)-1-butanone (NNK) (62339-61-1), 10 ppm as Se in diet, wks 6 to 32, study duration 26 wk, Route [Inhibitor]: Oral, Species: Mouse, Strain/Sex: A/J / Female, Target Tissue: Type of Lesion: Lung: Tumor, Dose [Carcinogen]: 3 umol once a wk for 8 wk beginning at wk 6 (total of 24 umol/mouse), study duration 26 wk","90%, 20% (78% reduction), p<0.001 and 96%, 68% (30% reduction), p<0.01"
same,"tumour outcome (control, treated, inhibition, significance)","Carcinogen: 4-(METHYLNITROSAMINO)-1-(3-PYRIDYL)-1-BUTANONE, 64091-91-4, 0.0005% IN DIET FOR 17 WK BEGINNING 1 WK PRIOR TO CARCINOGEN DOSE (STUDY DURATION: 17 WK), Route [Inhibitor]: ORAL, Species: MOUSE, Strain/Sex: STRAIN-A/FEMALE, Target Tissue: Type of Lesion: LUNG: ADENOMA, Dose [Carcinogen]: 10 UMOL IN 0.1 ML SALINE ONCE, Promoter: NONE USED","100%, 100%, 0%, not significant"
same,"tumour outcome (control, treated, inhibition, significance)","Carcinogen: 4-(METHYLNITROSAMINO)-1-(3-PYRIDYL)-1-BUTANONE, 64091-91-4, 5 PPM IN DIET BEGINNING 1 WK PRIOR TO CARCINOGEN TREATMENT AND CONTINUING FOR 16 WK POST CARCINOGEN TREATMENT (STUDY, Route [Inhibitor]: ORAL, Species: MOUSE, Strain/Sex: STRAIN-A/FEMALE, Target Tissue: Type of Lesion: LUNG: ADENOMA, Dose [Carcinogen]: 10 UMOL IN 0.1 ML SALINE, Promoter: NONE USED","100%, 100%, 0%, not significant"
same,"tumour outcome (control, treated, inhibition, significance)","Carcinogen: 4-(METHYLNITROSAMINO)-1-(3-PYRIDYL)-1-BUTANONE, 64091-91-4, 7.5 PPM IN DIET FOR 3 WK BEGINNING 1 WK PRIOR TO CARCINOGEN DOSE (STUDY DURATION: 18 WK), Route [Inhibitor]: ORAL, Species: MOUSE, Strain/Sex: STRAIN-A/FEMALE, Target Tissue: Type of Lesion: LUNG: TUMOR, Dose [Carcinogen]: 10 UMOL IN 0.1 ML SALINE ONCE, Promoter: NONE USED","100%, 80%, 20%, not significant"
same,"tumour outcome (control, treated, inhibition, significance)","Carcinogen: 4-(METHYLNITROSAMINO)-1-(3-PYRIDYL)-1-BUTANONE, 64091-91-4, 7.5 PPM IN DIET FOR 15 WK BEGINNING 1 WK POST CARCINOGEN DOSE (STUDY DURATION: 18 WK), Route [Inhibitor]: ORAL, Species: MOUSE, Strain/Sex: STRAIN-A/FEMALE, Target Tissue: Type of Lesion: LUNG: TUMOR, Dose [Carcinogen]: 10 UMOL IN 0.1 ML SALINE ONCE, Promoter: NONE USED","100%, 96%, 4%, not significant"
same,"tumour outcome (control, treated, inhibition, significance)","Carcinogen: 4-(METHYLNITROSAMINO)-1-(3-PYRIDYL)-1-BUTANONE, 64091-91-4, 10 PPM IN DIET BEGINNING 1 WK PRIOR TO CARCINOGEN TREATMENT AND CONTINUING FOR 16 WK POST CARCINOGEN TREATMENT (STUDY, Route [Inhibitor]: ORAL, Species: MOUSE, Strain/Sex: STRAIN-A/FEMALE, Target Tissue: Type of Lesion: LUNG: ADENOMA, Dose [Carcinogen]: 10 UMOL IN 0.1 ML SALINE, Promoter: NONE USED","100%, 90%, 10%, not significant"
same,"tumour outcome (control, treated, inhibition, significance)","Carcinogen: 4-(METHYLNITROSAMINO)-1-(3-PYRIDYL)-1-BUTANONE, 64091-91-4, 15 PPM IN DIET BEGINNING 1 WK PRIOR TO CARCINOGEN TREATMENT AND CONTINUING FOR 16 WK POST CARCINOGEN TREATMENT (STUDY, Route [Inhibitor]: ORAL, Species: MOUSE, Strain/Sex: STRAIN-A/FEMALE, Target Tissue: Type of Lesion: LUNG: ADENOMA, Dose [Carcinogen]: 10 UMOL IN 0.1 ML SALINE, Promoter: NONE USED","100%, 85%, 15%, not significant"
same,"tumour outcome (control, treated, inhibition, significance)","Carcinogen: 4-(METHYLNITROSAMINO)-1-(3-PYRIDYL)-1-BUTANONE, 64091-91-4, 15 PPM IN DIET FOR 3 WK BEGINNING 2 WK PRIOR TO CARCINOGEN DOSE (STUDY DURATION: 18 WK), Route [Inhibitor]: ORAL, Species: MOUSE, Strain/Sex: STRAIN-A/FEMALE, Target Tissue: Type of Lesion: LUNG: TUMOR, Dose [Carcinogen]: 10 UMOL IN 0.1 ML SALINE ONCE, Promoter: NONE USED","100%, 80%, 20%, not significant"
same,"tumour outcome (control, treated, inhibition, significance)","Carcinogen: 4-(METHYLNITROSAMINO)-1-(3-PYRIDYL)-1-BUTANONE, 64091-91-4, 15 PPM IN DIET FOR 15 WK BEGINNING 1 WK POST CARCINOGEN DOSE (STUDY DURATION: 18 WK), Route [Inhibitor]: ORAL, Species: MOUSE, Strain/Sex: STRAIN-A/FEMALE, Target Tissue: Type of Lesion: LUNG: TUMOR, Dose [Carcinogen]: 10 UMOL IN 0.1 ML SALINE ONCE, Promoter: NONE USED","100%, 96%, 4%, not significant"
same,"tumour outcome (control, treated, inhibition, significance)","Carcinogen: 7,12-DIMETHYLBENZ[A]ANTHRACENE, 57-97-6, 2.5 PPM (AS SELENIUM) IN DIET BEGINNING 2 WK PRIOR TO CARCINOGEN DOSE AND CONTINUING FOR DURATION OF STUDY (STUDY DUR, Route [Inhibitor]: ORAL, Species: RAT, Strain/Sex: SPRAGUE-DAWLEY/FEMALE, Target Tissue: Type of Lesion: MAMMARY GLAND: ADENOCARCINOMA, Dose [Carcinogen]: 10 MG ONCE AT 55 D OF AGE, Promoter: NONE USED","88%, 72%, 18%, not significant"
same,"tumour outcome (control, treated, inhibition, significance)","Carcinogen: 7,12-DIMETHYLBENZ[A]ANTHRACENE, 57-97-6, 5 PPM (AS SELENIUM) IN DIET BEGINNING 1 WK POST CARCINOGEN DOSE AND CONTINUING FOR 25 WK (STUDY DURATION: 25 WK), Route [Inhibitor]: ORAL, Species: RAT, Strain/Sex: SPRAGUE-DAWLEY/FEMALE, Target Tissue: Type of Lesion: MAMMARY GLAND: ADENOCARCINOMA, Dose [Carcinogen]: 10 MG ONCE AT 55 D OF AGE, Promoter: NONE USED","22/25 (88%), 17/25 (68%), 23%, not significant"
